Literature values as cited in patent publication US6723337B1, “Transdermal drug delivery system for anti-inflammatory analgesic agent comprising diclofenac diethylammonium salt, and the manufacturing method thereof” (Samyang Corporation, priority 1997, dated 2004).

Conditions: composition comprising hydroxy ethyl pyrrolidone or hydroxy ethyl piperidine as absorption enhancer

For `O=C(O)Cc1ccccc1Nc1c(Cl)cccc1Cl` [diclofenac], the “transdermal penetration of the accumulated diclofenac” value is given as 180 μg/cm^2·day.
